# From patent publication US6914045B2, “Glycopeptide antibiotics” (Wyeth Holdings Corporation, priority 2001, dated 2005)
# Columns and labels:
# Test in all cases: in vitro antibacterial evaluation, MIC by broth dilution
# Type in all cases: cell-based
# [1] = tested on: Staphylococcus sp.; conditions: broth dilution, 18 hours at 35° C.
# Summary of the method: (§1)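 Step 1: dilute antibiotic across 64-0.06 μg/mL in Muller-Hinton II […]. Step 2: inoculate at 5×10^5 CFU/mL.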
# [2] = tested on: Streptococcus sp.
# Summary of the method: as §1
# [3] = tested on: Escherichia coli
# Summary of the method: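 Test organisms, which included recent clinical isolates resistant to methicillin, penicillin and/or vancomycin, were inoculated at 5×10^5 CFU/mL into Muller-Hinton II […] containing antibiotic at 64-0.06 μg/mL. Minimum inhibitory concentrations were then read as the lowest level inhibiting growth.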
# [4] = tested on: Enterococcus sp.
# Summary of the method: as §1
# [5] = broth dilution, 18 hours at 35° C.
structure (smiles),measurement,setting,value
"CC(c1ccc(F)cc1)C1NC(=O)CNC(=O)C(CO)NC(=O)C(C(O)C2CNC(=N)N2C2OC(CO)C(O)C(O)C2O)NC(=O)C(C(O)C2CNC(=N)N2)NC(=O)C(Cc2ccc(OC3OC(CO)C(OC4OC(CO)C(O)C(O)C4O)C(O)C3O)cc2)NC1=O (stereo not drawn) [Example 261a, Cyclo[glycyl-4-fluoro-β-methylphenylalanyl-O-(4-O-hexopyranosylhexopyranosyl)tyrosyl-3-(2-iminoimidazolidin-4-yl)seryl-3-(3-hexopyranosyl-2-iminoimidazolidin-4-yl)serylseryl]]",MIC Coagulase Negative Staphylococcus (GC 4547),[1],>64 mg/L
same,MIC Coagulase Negative Staphylococcus (GC 4548),[1],>64 mg/L
same,MIC Coagulase Negative Staphylococcus (GC 4549),[1],>64 mg/L
same,MIC Coagulase Negative Staphylococcus (GC 4551),[1],>64 mg/L
same,MIC Staphylococcus aureus (ATCC 29213),[1],>64 mg/L
same,MIC Staphylococcus aureus (GC 1131),[1],>64 mg/L
same,MIC Staphylococcus aureus (GC 4541),[1],>64 mg/L
same,MIC Staphylococcus aureus (GC 4542),[1],>64 mg/L
same,MIC Staphylococcus aureus (GC 4544),[1],>64 mg/L
same,MIC Staphylococcus aureus (GC 4545),[1],>64 mg/L
same,MIC Staphylococcus aureus-SMITH (GC 4543),[1],>64 mg/L
same,MIC Staphylococcus haemolyticus (GC 4546),[1],>64 mg/L
same,MIC Staphylococcus aureus (ATCC 29213),[1]; strain ATCC 29213,>64 mg/L
same,MIC Staphylococcus aureus (GC 1131),[1]; strain GC 1131,>64 mg/L
same,MIC Staphylococcus aureus (GC 4541),[1]; strain GC 4541,>64 mg/L
same,MIC Staphylococcus aureus (GC 4542),[1]; strain GC 4542,>64 mg/L
same,MIC Staphylococcus aureus (GC 4544),[1]; strain GC 4544,>64 mg/L
same,MIC Staphylococcus aureus (GC 4545),[1]; strain GC 4545,>64 mg/L
same,MIC Streptococcus agalactiae (GC 4564),[2]; [5],>64 mg/L
same,MIC Streptococcus pyogenes (ID-3187),[2]; [5],>64 mg/L
same,MIC Streptococcus agalactiae (GC 4564),"[2]; broth dilution, 18 hours at 35° C.; strain GC 4564",>64 mg/L
same,MIC Streptococcus pyogenes (ID-3187),"[2]; broth dilution, 18 hours at 35° C.; strain ID-3187",>64 mg/L
same,MIC Escherichia coli (ATCC 25922),"[3]; Escherichia coli (ATCC 25922), 18 hours at 35° C.",>64 mg/L
same,MIC Escherichia coli (GC 4559),"[3]; Escherichia coli (GC 4559), 18 hours at 35° C.",>64 mg/L
same,MIC Escherichia coli (GC 4560),"[3]; Escherichia coli (GC 4560), 18 hours at 35° C.",>64 mg/L
same,MIC Enterococcus avium (GC 4558),"[4]; Enterococcus avium (GC 4558); broth dilution, 18 hours at 35° C.",>64 mg/L
same,MIC Enterococcus faecalis (ATCC 29212),"[4]; Enterococcus faecalis (ATCC 29212); broth dilution, 18 hours at 35° C.",>64 mg/L
same,MIC Enterococcus faecalis (GC 4553),"[4]; Enterococcus faecalis (GC 4553); broth dilution, 18 hours at 35° C.",>64 mg/L
same,MIC Enterococcus faecalis (GC 4554),"[4]; Enterococcus faecalis (GC 4554); broth dilution, 18 hours at 35° C.",>64 mg/L
same,MIC Enterococcus faecium (GC 2243),"[4]; Enterococcus faecium (GC 2243); broth dilution, 18 hours at 35° C.",>64 mg/L
same,MIC Enterococcus faecium (GC 4556),"[4]; Enterococcus faecium (GC 4556); broth dilution, 18 hours at 35° C.",>64 mg/L
same,MIC Enterococcus faecium (GC 4557),"[4]; Enterococcus faecium (GC 4557); broth dilution, 18 hours at 35° C.",>64 mg/L
same,MIC Enterococcus faecalis (GC 2242),[4]; [5],>64 mg/L
same,MIC Enterococcus faecalis (GC 4552),[4]; [5],>64 mg/L
same,MIC Enterococcus faecalis (ATCC 29212),"[4]; broth dilution, 18 hours at 35° C.; strain ATCC 29212",>64 mg/L
same,MIC Enterococcus faecalis (GC 2242),"[4]; broth dilution, 18 hours at 35° C.; strain GC 2242",>64 mg/L
same,MIC Enterococcus faecium (GC 2243),"[4]; broth dilution, 18 hours at 35° C.; strain GC 2243",>64 mg/L
same,MIC Enterococcus faecalis (GC 4552),"[4]; broth dilution, 18 hours at 35° C.; strain GC 4552",>64 mg/L
same,MIC Enterococcus faecalis (GC 4553),"[4]; broth dilution, 18 hours at 35° C.; strain GC 4553",>64 mg/L
same,MIC Enterococcus faecalis (GC 4554),"[4]; broth dilution, 18 hours at 35° C.; strain GC 4554",>64 mg/L
same,MIC Enterococcus faecium (GC 4556),"[4]; broth dilution, 18 hours at 35° C.; strain GC 4556",>64 mg/L
same,MIC Enterococcus faecium (GC 4557),"[4]; broth dilution, 18 hours at 35° C.; strain GC 4557",>64 mg/L
same,MIC Enterococcus avium (GC 4558),"[4]; broth dilution, 18 hours at 35° C.; strain GC 4558",>64 mg/L
CC(c1ccccc1)C1NC(=O)CNC(=O)C(CO)NC(=O)C(C(O)C2CNC(=N)N2C2OC(CO)C(O)C(O)C2O)NC(=O)C(C(O)C2CNC(=N)N2)NC(=O)C(Cc2ccc(OC3OC(CO)C(OC4OC(CO)C(O)C5OC(c6ccc(-c7ccsc7)cc6)OC45)C(O)C3O)cc2)NC1=O (stereo not shown) [Example 164a],MIC Staphylococcus aureus (GC 1131),"[1]; inoculum 5×10^5 CFU/mL, strain GC 1131",8 mg/L
same,MIC Staphylococcus aureus (ATCC 29213),[1]; strain ATCC 29213,8 mg/L
same,MIC Staphylococcus aureus (GC 1131),[1]; strain GC 1131,8 mg/L
same,MIC Staphylococcus aureus (GC 3051),[1]; strain GC 3051,8 mg/L
same,MIC Staphylococcus aureus (GC 3053),[1]; strain GC 3053,8 mg/L
same,MIC Staphylococcus aureus (GC 4541),[1]; strain GC 4541,8 mg/L
same,MIC Staphylococcus aureus (GC 4542),[1]; strain GC 4542,16 mg/L
same,MIC Staphylococcus aureus-SMITH (GC 4543),[1]; strain GC 4543,8 mg/L
same,MIC Staphylococcus aureus (GC 4544),[1]; strain GC 4544,8 mg/L
same,MIC Staphylococcus aureus (GC 4545),[1]; strain GC 4545,8 mg/L
same,MIC Staphylococcus haemolyticus (GC 4546),[1]; strain GC 4546,4 mg/L
same,MIC Coagulase Negative Staphylococcus (GC 4547),[1]; strain GC 4547,8 mg/L
same,MIC Coagulase Negative Staphylococcus (GC 4548),[1]; strain GC 4548,4 mg/L
same,MIC Coagulase Negative Staphylococcus (GC 4549),[1]; strain GC 4549,4 mg/L
same,MIC Coagulase Negative Staphylococcus (GC 4551),[1]; strain GC 4551,8 mg/L
same,MIC Coagulase Negative Staphylococcus (GC 6257),[1]; strain GC 6257,4 mg/L
same,MIC Staphylococcus aureus-SMITH (GC 4543),[1]; strain SMITH GC 4543,8 mg/L
same,MIC Streptococcus pneumoniae (ATCC 6301),"[2]; broth dilution, inoculum 5×10^5 CFU/mL, 18 hours at 35° C.; strain ATCC 6301",1 mg/L
same,MIC Streptococcus pneumoniae (GC 1894),"[2]; broth dilution, inoculum 5×10^5 CFU/mL, 18 hours at 35° C.; strain GC 1894",0.25 mg/L
same,MIC Streptococcus pyogenes (GC 4563),"[2]; broth dilution, inoculum 5×10^5 CFU/mL, 18 hours at 35° C.; strain GC 4563",0.5 mg/L
same,MIC Streptococcus agalactiae (GC 4564),"[2]; broth dilution, inoculum 5×10^5 CFU/mL, 18 hours at 35° C.; strain GC 4564",1 mg/L
same,MIC Streptococcus pneumoniae (GC 4565),"[2]; broth dilution, inoculum 5×10^5 CFU/mL, 18 hours at 35° C.; strain GC 4565",1 mg/L
same,MIC Streptococcus pneumoniae (ATCC 6301),"[2]; strain ATCC 6301; broth dilution, 18 hours at 35° C.",1 mg/L
same,MIC Streptococcus pneumoniae (GC 1894),"[2]; strain GC 1894; broth dilution, 18 hours at 35° C.",0.25 mg/L
same,MIC Streptococcus pyogenes (GC 4563),"[2]; strain GC 4563; broth dilution, 18 hours at 35° C.",0.5 mg/L
same,MIC Streptococcus agalactiae (GC 4564),"[2]; strain GC 4564; broth dilution, 18 hours at 35° C.",1 mg/L
same,MIC Streptococcus pneumoniae (GC 4565),"[2]; strain GC 4565; broth dilution, 18 hours at 35° C.",1 mg/L
same,MIC Escherichia coli (ATCC 25922),"[3]; strain ATCC 25922, 18 hours at 35° C.",32 mg/L
same,MIC Escherichia coli (GC 4559),"[3]; strain GC 4559, 18 hours at 35° C.",32 mg/L
same,MIC Escherichia coli (GC 4560),"[3]; strain GC 4560, 18 hours at 35° C.",8 mg/L
same,MIC Enterococcus faecalis (ATCC 29212),"[4]; broth dilution, inoculum 5×10^5 CFU/mL, 18 hours at 35° C.; strain ATCC 29212",16 mg/L
same,MIC Enterococcus faecalis (GC 2242),"[4]; broth dilution, inoculum 5×10^5 CFU/mL, 18 hours at 35° C.; strain GC 2242",16 mg/L
same,MIC Enterococcus faecium (GC 2243),"[4]; broth dilution, inoculum 5×10^5 CFU/mL, 18 hours at 35° C.; strain GC 2243",8 mg/L
same,MIC Enterococcus faecalis (GC 2691),"[4]; broth dilution, inoculum 5×10^5 CFU/mL, 18 hours at 35° C.; strain GC 2691",16 mg/L
same,MIC Enterococcus faecalis (GC 3059),"[4]; broth dilution, inoculum 5×10^5 CFU/mL, 18 hours at 35° C.; strain GC 3059",16 mg/L
same,MIC Enterococcus faecalis (GC 4552),"[4]; broth dilution, inoculum 5×10^5 CFU/mL, 18 hours at 35° C.; strain GC 4552",16 mg/L
same,MIC Enterococcus faecalis (GC 4553),"[4]; broth dilution, inoculum 5×10^5 CFU/mL, 18 hours at 35° C.; strain GC 4553",16 mg/L
same,MIC Enterococcus faecalis (GC 4554),"[4]; broth dilution, inoculum 5×10^5 CFU/mL, 18 hours at 35° C.; strain GC 4554",16 mg/L
same,MIC Enterococcus faecium (GC 4556),"[4]; broth dilution, inoculum 5×10^5 CFU/mL, 18 hours at 35° C.; strain GC 4556",16 mg/L
same,MIC Enterococcus faecium (GC 4557),"[4]; broth dilution, inoculum 5×10^5 CFU/mL, 18 hours at 35° C.; strain GC 4557",4 mg/L
same,MIC Enterococcus avium (GC 4558),"[4]; broth dilution, inoculum 5×10^5 CFU/mL, 18 hours at 35° C.; strain GC 4558",8 mg/L
same,MIC Enterococcus faecalis (GC 6189),"[4]; broth dilution, inoculum 5×10^5 CFU/mL, 18 hours at 35° C.; strain GC 6189",16 mg/L
same,MIC Enterococcus faecalis (ATCC 29212),"[4]; strain ATCC 29212; broth dilution, 18 hours at 35° C.",16 mg/L
same,MIC Enterococcus faecalis (GC 2242),"[4]; strain GC 2242; broth dilution, 18 hours at 35° C.",16 mg/L
same,MIC Enterococcus faecium (GC 2243),"[4]; strain GC 2243; broth dilution, 18 hours at 35° C.",8 mg/L
same,MIC Enterococcus faecalis (GC 2691),"[4]; strain GC 2691; broth dilution, 18 hours at 35° C.",16 mg/L
same,MIC Enterococcus faecalis (GC 3059),"[4]; strain GC 3059; broth dilution, 18 hours at 35° C.",16 mg/L
same,MIC Enterococcus faecalis (GC 4552),"[4]; strain GC 4552; broth dilution, 18 hours at 35° C.",16 mg/L
same,MIC Enterococcus faecalis (GC 4553),"[4]; strain GC 4553; broth dilution, 18 hours at 35° C.",16 mg/L
same,MIC Enterococcus faecalis (GC 4554),"[4]; strain GC 4554; broth dilution, 18 hours at 35° C.",16 mg/L
same,MIC Enterococcus faecium (GC 4556),"[4]; strain GC 4556; broth dilution, 18 hours at 35° C.",16 mg/L
same,MIC Enterococcus faecium (GC 4557),"[4]; strain GC 4557; broth dilution, 18 hours at 35° C.",4 mg/L
same,MIC Enterococcus avium (GC 4558),"[4]; strain GC 4558; broth dilution, 18 hours at 35° C.",8 mg/L
same,MIC Enterococcus faecalis (GC 6189),"[4]; strain GC 6189; broth dilution, 18 hours at 35° C.",16 mg/L
